Legend:
Rattus norvegicus = organism: Rattus norvegicus; assay: Displacement of [35S]TBPS from GABAA receptor in rat cerebellum at 10 uM to 1 nM after 60 mins; assay type: tissue-based
[1] = Displacement of [35S]TBPS from GABAA receptor in rat cerebellum after 60 mins; assay type: tissue-based

## CC(=O)[C@H]1CC[C@H]2[C@@H]3CC=C4C[C@H](O)CCC[C@]4(C)[C@H]3CC[C@]12C
Rattus norvegicus
  Imax: 50.7%
[1]
  IC50: 800 nM

## CC(=O)[C@H]1CC[C@H]2[C@@H]3CC[C@H]4CC[C@@H](O)CC[C@]4(C)[C@H]3CC[C@]12C
Rattus norvegicus
  Imax: 46.2%
[1]
  IC50: 1000 nM

## CC(=O)[C@H]1CC[C@H]2[C@@H]3CC[C@H]4C[C@H](O)CC[C@]4(C)[C@H]3CC[C@]12C [BREXANOLONE]
Rattus norvegicus
  Imax: 79.6%
[1]
  IC50: 80 nM

## CC(=O)[C@H]1CC[C@H]2[C@@H]3CC=C4CC[C@H](O)CC[C@]4(C)[C@H]3CC[C@]12C
Rattus norvegicus
  Imax: 75.6%
[1]
  IC50: 1200 nM

## CC(=O)[C@H]1CC[C@H]2[C@@H]3CC=C4CC[C@@H](O)CC[C@]4(C)[C@H]3CC[C@]12C
Rattus norvegicus
  Imax: 50%
[1]
  IC50: 100 nM

From ChEMBL document CHEMBL1177881, “Synthesis and GABAA receptor activity of A-homo analogues of neuroactive steroids” (Eur J Med Chem, 2010)
